Results published in US20140017893A1, “CMP POLISHING LIQUID AND METHOD FOR POLISHING SUBSTRATE USING THE SAME” (Hitachi Chemical Company, Ltd., priority 2007, published 2014).
Converted amounts (≈) assume the structure as drawn.

Experiment: Solubility of guanidine compounds in water, OECD Guideline 105 flask method
Type: physicochemical

solubility (water, thermodynamic from solid)	Solubility in water	Compound
50 mM (≈ 3700 µg/mL)		N=C(N)NN [aminoguanidine]
	15 mM (≈ 2870 µg/mL)	Cc1ccccc1NC(=N)NC(=N)N [o-Tolylbiguanide]
